The record followed here is patent US11174249B2, “Cooling composition” (FIRMENICH SA, priority 2017, dated 2021).

The structures appear in SMILES notation.

The data set in a line: Solubility of compound of formula (I) in flavor solvents (Crystalline PV instrument, temperature solubility curve). The format is physicochemical. To be noted: 22° C. The method, then:
A precise amount of the powder was weighed into a transparent 8 mL tube, 3 g of solvent was added, and the tube was sealed with a cap equipped with an integrated overhead stirrer. The tube was immediately transferred to a Crystalline PV instrument (Technobis Crystallization Systems, The Netherlands), and placed into a precooled reactor at 3° C. The sample was heated and stirred in the reactor at a rate of 0.1° C./min up to 60° C. Each reactor of the Crystalline PV instrument is equipped with an LED sensor and a digital camera, and data is acquired as real-time transmittance to detect turbidity or as video images for visualization. The solubility temperature is reached when all particles have dissolved. In order to establish a temperature solubility curve, at least 4 samples with different concentrations are measured. The data are fitted to an exponential curve according to the model of Hoffmann, and solubility as a function of temperature can be calculated by extrapolation. Under this method, the solubility of N-(1H-pyrazol-3-yl)-N-(thiophen-2-ylmethyl)-2-(p-tolyloxy)acetamide in different solvents, which could be used in flavor application, was measured.

On to `Cc1ccc(OCC(=O)N(Cc2cccs2)c2ccn[nH]2)cc1` [N-(1H-pyrazol-3-yl)-N-(thiophen-2-ylmethyl)-2-(p-tolyloxy)acetamide], for which the Solubility is recorded as 5.7% (in Augeo Clean Multi); 5.4% (in Dowanol TPM); 3.3% (in Ethanol abs.); 8.6% (in Ethyl lactate); 2.1% (in Mint piperita); 0.4% (in PG). The compound also had a Solubility (in triacetin) of 1.2% and a Solubility (in triethyl citrate) of 3.1%.
Under “in Ethyl lactate”, `CCc1ccc(OCC(=O)N(Cc2cccs2)c2cc[nH]n2)cc1` [2-(4-ethylphenoxy)-N-(1H-pyrazol-3-yl)-N-(thiophen-2-ylmethyl)acetamide] yielded a Solubility of 26.1%.
